Key:
Assay type in all cases: cell-based
IL-17A [1] = assay: Cytokine suppression assay, anti-CD3/anti-CD28 (Dynabead)-stimulated PBMC: IL-17A release; details: 10 μg/mL; anti-CD3/anti-CD28-stimulated human PBMC; 20 h
Excerpt: (§1) PBMCs from four healthy donors were isolated from buffy coats using Lymphoprep™ density gradient medium ([sequence] Technologies, Vancouver, Canada), according to the manufacturer's instructions. Isolated cells were cryopreserved in 90% heat-inactivated foetal calf serum (FCS) (Bovogen Biologicals) with 10% dimethyl sulfoxide (DMSO; Sigma-Aldrich, St. Louis, MO, USA) using vapour phase nitrogen until required. On the day of the experiment, PBMCs were thawed and removed from the freezing medium by washing with 9 mL pre-warmed culture medium and centrifugation at 300×g for 5 min. An R10 culture medium of RPMI-1640 media without L-glutamine (Gibco Thermo Fisher Scientific, Waltham, MA, USA), supplemented with 10% heat-inactivated foetal bovine serum (FBS; Bovogen Biologicals, Christchurch, New Zealand), 10,000 units/mL of penicillin+10,000 μg/mL of streptomycin (Thermo Fisher Scientific), and 1× GlutaMAX (Thermo Fisher Scientific) was used for all experiments. […] After incubation, the enzyme was removed by two additional washes with R10. Thawed PBMCs were counted using a CASY cell counter (Roche Innovatis, Germany), and cell densities were adjusted to seed 100,000 cells/well into 96-well plates in a final volume of 100 μL culture medium.
(§2) For our cytokine suppression assays, inflammatory cytokines (IFN-γ, IL-17A, IL-8, and TNF) were induced in two ways. First, the PBMCs from three donors were activated with a cell stimulation cocktail of 50 ng/mL phorbol 12-myristate 13-acetate and 1 μg/mL ionomycin (P/I; eBioscience). P/1-stimulated cells were treated with 10 μg/mL of U. metrosideros compounds, PCE, CsA (Sigma-Aldrich), or remained untreated. Second, the PBMCs from four donors were cultured in the presence of Dynabeads Human T-Activator CD3/CD28 (Gibco) at a cell-to-bead ratio of 1:1. […] On the day of the experiment, cytokine concentrations were determined using a standard LEGENDplex™ human inflammation panel 1 (BioLegend®), LSRFortessa (BD), and LEGENDplex™ software (version 2022-02-10, Qognit, Inc.).

IL-8 = assay: Cytokine suppression assay, anti-CD3/anti-CD28 (Dynabead)-stimulated PBMC: IL-8 release; details: 10 μg/mL; anti-CD3/anti-CD28-stimulated human PBMC; 20 h
Excerpt: (§3) PBMCs from four healthy donors were isolated from buffy coats using Lymphoprep™ density gradient medium ([sequence] Technologies, Vancouver, Canada), according to the manufacturer's instructions. Isolated cells were cryopreserved in 90% heat-inactivated foetal calf serum (FCS) (Bovogen Biologicals) with 10% dimethyl sulfoxide (DMSO; Sigma-Aldrich, St. Louis, MO, USA) using vapour phase nitrogen until required. On the day of the experiment, PBMCs were thawed and removed from the freezing medium by washing with 9 mL pre-warmed culture medium and centrifugation at 300×g for 5 min. […] Thawed PBMCs were counted using a CASY cell counter (Roche Innovatis, Germany), and cell densities were adjusted to seed 100,000 cells/well into 96-well plates in a final volume of 100 μL culture medium.
(§4) For our cytokine suppression assays, inflammatory cytokines (IFN-γ, IL-17A, IL-8, and TNF) were induced in two ways. […] On the day of the experiment, cytokine concentrations were determined using a standard LEGENDplex™ human inflammation panel 1 (BioLegend®), LSRFortessa (BD), and LEGENDplex™ software (version 2022-02-10, Qognit, Inc.).

IL-17A [2] = assay: Cytokine suppression assay, P/I-stimulated PBMC: IL-17A release; details: 10 μg/mL; P/I-stimulated human PBMC; 20 h treatment; relative to stimulated control
Excerpt: as §3, §4

IFN-γ [3] = assay: Cytokine suppression assay, anti-CD3/anti-CD28 (Dynabead)-stimulated PBMC: IFN-γ release; details: 10 μg/mL; anti-CD3/anti-CD28-stimulated human PBMC; 20 h
Excerpt: as §3, §4

IFN-γ [4] = assay: Cytokine suppression assay, P/I-stimulated PBMC: IFN-γ release; details: 10 μg/mL; P/I-stimulated human PBMC; 20 h treatment; relative to stimulated control
Excerpt: as §1, §2

Compound | suppression of Dynabead-induced IL-17A secretion (IL-17A [1]) [%] | inhibition of IL-8 release (IL-8) [%] | reduction of IL-17A levels (IL-17A [2]) [%] | suppression of Dynabead-induced IFN-γ secretion (IFN-γ [3]) [%] | suppression of IFN-γ secretion (IFN-γ [4]) [%]
galloyl-lawsoniaside A [Compound 4] | 80.9 | 40.5 | 79.1 | 78.5 | 95.3
CC1=CC[C@@H](C(C)(C)O[C@@H]2O[C@H](COC(=O)c3cc(O)c(O)c(O)c3)[C@@H](O)[C@H](O)[C@H]2O)CC1 [Compound 5, (4S)-α-terpineol 8-O-β-D-(6-O-galloyl)glucopyranoside] | 53.7 | 24.3 | 60.9 | 59.3 | 79.6
CC1=CC(=O)CC(C)(C)[C@@]1(O)/C=C/[C@@H](C)O[C@@H]1O[C@H](CO)[C@@H](O)[C@H](O)[C@H]1O [Compound 3, (6S,9R)-roseoside] | 38.2 |  |  |  | 64.4
